Measured values: PMC5021961, “Generation of self-clusters of galectin-1 in the farnesyl-bound form” (Scientific Reports, 2016)

Molecular target: T1, human galectin-1 (Gal-1) (Homo sapiens, UniProt P09382)
T1 construct: gene LGALS1
Test: Trp68 fluorescence titration (equilibrium fit with Hill coefficient […]), fluorescence lifetime, UV resonance Raman, CD, native PAGE self-clustering
Format: binding

T1 sequence (P09382 2-135): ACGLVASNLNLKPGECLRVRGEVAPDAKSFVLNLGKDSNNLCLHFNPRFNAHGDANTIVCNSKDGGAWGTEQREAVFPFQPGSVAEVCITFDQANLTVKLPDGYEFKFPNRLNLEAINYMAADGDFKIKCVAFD

Kd: ~2300 nM
Compound: CC(C)=CCC/C(C)=C/CC/C(C)=C/CSc1ccccc1C(=O)O [FTS, farnesyl thiosalicylic acid]
